According to patent US20210187128A1, “COLOR CHANGING SILK PATCH FOR VISIBLE ROS DETECTION” (University of Central Florida Research Foundation, Inc., priority 2019, published 2021):

Experiments:
[1] = cited from earlier work
[2] = test system: human skin keratinocyte (HaCat) cells; assay: In vitro cellular biocompatibility of Amplex Red by MTT assay; format: cell-based; settings: for cellular viability: highest concentration of 388 μM, beyond 80% considered biocompatible
Procedure: Amplex Red compound was tested for in vitro cellular toxicity analysis against the human skin keratinocyte (HaCat) cells (purchased from ATCC, USA) using cell culture-based MTT assay. Herein, 10,000 cells were grown overnight into a 96 well plate using DMEM:F12 cell culture media. Different concentrations of Amplex red compound were prepared using incomplete cell culture media and incubated with HaCat cells for a time period of 24 hours and 48 hours respectively. Post incubation time period, MTT analysis was performed using the standard protocol described in Singh 2018, herein incorporated by reference into this disclosure in its entirety. (S. (Singh, A. Ly, S. Das, T. S. Sakthivel, S. Barkam and S. Seal, Artif. Cells, Nanomed., Biotechnol., 2018, 1-8). MTT assay compound (Thiazyolyl blue tetrazolium bromide) was then added for measuring the cellular viability, and absorbance was recorded for treated samples in comparison to control samples (HaCat cells only) and data analysis was performed.

## CC(=O)N1c2ccc(O)cc2Oc2cc(O)ccc21 [Amplex Red]
[1]; in solutions
  detection limit for H2O2 in solutions: 10 picomolar
[1]; with HRP, 100 μL volume
  amount of H2O2 detected (limit of detection): 10 picomoles
[2]
  toxicity to the cells: completely non-toxic
[2]; 24 hours
  concentration found to be highly biocompatible: up to 388 μM
  cellular viability: > 80%
[2]; 48 hours
  concentration found to be highly biocompatible: up to 388 μM
  cellular viability: > 80%
